Measurements as given in ChEMBL document CHEMBL1145929, “Syntheses and binding studies of new [(aryl)(aryloxy)methyl]piperidine derivatives and related compounds as potential antidepressant drugs with high affinity for serotonin (5-HT) and norepinephrine (NE) transporters” (J Med Chem, 2003).

Each molecule was assayed against T1, Sodium-dependent serotonin transporter (Rattus norvegicus, UniProt P31652) (assay: Binding affinity to the serotonin transporter (SERT) measured by displacement of [3H]paroxetine in male wistar rats).
T1 sequence (P31652 whole entry): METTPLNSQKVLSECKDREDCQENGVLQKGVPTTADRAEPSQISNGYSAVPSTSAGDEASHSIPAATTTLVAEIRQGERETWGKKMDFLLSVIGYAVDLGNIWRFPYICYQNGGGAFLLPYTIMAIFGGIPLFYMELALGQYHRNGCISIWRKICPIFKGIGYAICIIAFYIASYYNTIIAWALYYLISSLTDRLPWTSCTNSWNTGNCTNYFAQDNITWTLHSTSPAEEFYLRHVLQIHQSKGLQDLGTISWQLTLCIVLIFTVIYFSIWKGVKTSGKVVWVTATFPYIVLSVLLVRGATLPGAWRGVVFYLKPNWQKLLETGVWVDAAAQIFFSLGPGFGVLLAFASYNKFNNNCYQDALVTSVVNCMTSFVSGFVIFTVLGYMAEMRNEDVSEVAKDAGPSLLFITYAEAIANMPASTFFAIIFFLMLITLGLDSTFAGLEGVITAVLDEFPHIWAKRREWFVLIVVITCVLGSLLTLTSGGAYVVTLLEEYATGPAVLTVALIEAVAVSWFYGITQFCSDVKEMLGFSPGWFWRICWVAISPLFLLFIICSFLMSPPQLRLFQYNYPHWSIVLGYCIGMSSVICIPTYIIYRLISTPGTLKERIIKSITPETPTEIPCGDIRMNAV
With `Fc1cccc(C(Oc2ccccc2F)C2CCNCC2)c1` (single isomer, unassigned; (-)) the Ki was 4.3 nM.
With `Fc1ccc(OC(c2ccccc2)C2CCNCC2)cc1` (stereo in doubt; (+)-15p) the Ki was 0.4 nM.
In the case of `c1ccc(C(Oc2cccc3ccccc23)C2CCNCC2)cc1` (single isomer, unassigned; (+)), the Ki is reported as 20.1 nM.
Molecule `Fc1ccc(OC(CC2CCNCC2)c2ccccc2)cc1` (configuration not stated) has a Ki of 78.3 nM.
For `O=[N+]([O-])c1ccc(OC(c2ccccc2)C2CCNCC2)cc1` (single isomer, unassigned; (-)), the Ki was 0.6 nM.
Molecule `Brc1ccc(OC(c2ccccc2)C2CCNCC2)cc1` (single isomer, unassigned; (+)) has a Ki of 23.2 nM.
Molecule `Fc1ccc(OC(CC2CCNCC2)c2ccc(F)cc2)cc1` (configuration not stated) has a Ki of 67.7 nM.
`OC1(c2ccc(Cl)cc2)c2ccccc2C2=NCCN21` (configuration not stated) [MAZINDOL] showed a Ki of 248 nM.
For `Fc1ccc(OC(c2cccc(F)c2)C2CCNCC2)cc1` (configuration not stated), the Ki was 5.8 nM.
`c1ccc(C(Oc2cccc3ccccc23)C2CCNCC2)cc1` (stereo in doubt; (-)-15au) gave a Ki of 28.1 nM.
In the case of `Fc1ccccc1OC(c1ccccc1)C1CCNCC1` (single isomer, unassigned; (+)), the Ki is reported as 28.5 nM.
With `Fc1cc(F)cc(OC(c2ccccc2)C2CCNCC2)c1` (stereo in doubt; (+)-15aj) the Ki was 7.1 nM.
`Brc1ccc(OC(c2ccccc2)C2CCNCC2)cc1` (single isomer, unassigned; (-)) showed a Ki of 5.7 nM.
Molecule `N#Cc1cccc(OC(c2ccccc2)C2CCNCC2)c1` (single isomer, unassigned; (+)) has a Ki of 1.4 nM.
`N#Cc1cccc(OC(c2ccccc2)C2CCNCC2)c1` (single isomer, unassigned; (-)) showed a Ki of 1.4 nM.
Molecule `Fc1cccc(OC(c2cccc(F)c2)C2CCNCC2)c1` (single isomer, unassigned; (+)) has a Ki of 2.8 nM.

Each molecule was assayed against T2, 5-hydroxytryptamine receptor 2A (Rattus norvegicus, UniProt P14842) (assay: Binding affinity against 5-hydroxytryptamine 2A receptor by displacement of [3H]ketanserin from rat prefrontal cerebral cortex mambranes).
T2 sequence (P14842 whole entry): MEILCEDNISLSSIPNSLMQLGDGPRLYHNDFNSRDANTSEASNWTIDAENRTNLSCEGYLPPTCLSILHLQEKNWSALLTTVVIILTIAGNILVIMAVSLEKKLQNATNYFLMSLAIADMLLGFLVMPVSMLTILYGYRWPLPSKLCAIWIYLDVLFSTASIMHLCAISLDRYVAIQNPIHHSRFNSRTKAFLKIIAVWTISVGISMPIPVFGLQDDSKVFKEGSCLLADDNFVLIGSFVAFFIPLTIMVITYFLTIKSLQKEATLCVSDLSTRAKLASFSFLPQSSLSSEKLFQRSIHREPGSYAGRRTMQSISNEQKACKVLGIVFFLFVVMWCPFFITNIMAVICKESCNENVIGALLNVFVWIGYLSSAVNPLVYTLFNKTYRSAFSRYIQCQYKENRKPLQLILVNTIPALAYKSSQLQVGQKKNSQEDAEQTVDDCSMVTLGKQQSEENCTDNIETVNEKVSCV
Type: tissue-based, Frontal cortex
`FC(F)(F)c1ccc(OC(CCN2CCN(c3nsc4ccccc34)CC2)c2ccccc2)cc1` (configuration not stated) was tested, and the Ki was 40.2 nM.
In the case of `COc1ccc(OC(CCN2CCN(c3nsc4ccccc34)CC2)c2ccccc2)cc1` (configuration not stated), the Ki is reported as 10.2 nM.
With `O=C(CCC(Oc1ccc([N+](=O)[O-])cc1)c1ccccc1)C1CCN(c2ccc(F)cc2)CC1` (configuration not stated) the Ki was 23 nM.
For `Fc1ccc(OC(CC2CCNCC2)c2ccccc2)cc1` (configuration not stated), the Ki was 140 nM.
In the case of `FC(F)(F)c1ccccc1OC(CCN1CCN(c2nsc3ccccc23)CC1)c1ccccc1` (configuration not stated), the Ki is reported as 24.1 nM.
For `c1ccc(-c2ccccc2OC(c2ccccc2)C2CCNCC2)cc1` (configuration not stated), the Ki was 149 nM.
`FC(F)(F)c1cccc(OC(CCN2CCN(c3nsc4ccccc34)CC2)c2ccccc2)c1` (configuration not stated) gave a Ki of 28.2 nM.
Work on `Fc1ccc(OC(CC2CCNCC2)c2ccc(F)cc2)cc1` (configuration not stated) yielded a Ki of 194 nM.
`Fc1ccc(OC(c2cccc(F)c2)C2CCNCC2)cc1` (configuration not stated) showed a Ki of 360 nM.

These molecules were tested against Sodium-dependent dopamine transporter (Rattus norvegicus, UniProt P23977) (assay: Binding affinity against dopamine transporter (DAT) by displacement of [3H]WIN-35428 in male wistar rats).
Sodium-dependent dopamine transporter, sequence (P23977 whole entry): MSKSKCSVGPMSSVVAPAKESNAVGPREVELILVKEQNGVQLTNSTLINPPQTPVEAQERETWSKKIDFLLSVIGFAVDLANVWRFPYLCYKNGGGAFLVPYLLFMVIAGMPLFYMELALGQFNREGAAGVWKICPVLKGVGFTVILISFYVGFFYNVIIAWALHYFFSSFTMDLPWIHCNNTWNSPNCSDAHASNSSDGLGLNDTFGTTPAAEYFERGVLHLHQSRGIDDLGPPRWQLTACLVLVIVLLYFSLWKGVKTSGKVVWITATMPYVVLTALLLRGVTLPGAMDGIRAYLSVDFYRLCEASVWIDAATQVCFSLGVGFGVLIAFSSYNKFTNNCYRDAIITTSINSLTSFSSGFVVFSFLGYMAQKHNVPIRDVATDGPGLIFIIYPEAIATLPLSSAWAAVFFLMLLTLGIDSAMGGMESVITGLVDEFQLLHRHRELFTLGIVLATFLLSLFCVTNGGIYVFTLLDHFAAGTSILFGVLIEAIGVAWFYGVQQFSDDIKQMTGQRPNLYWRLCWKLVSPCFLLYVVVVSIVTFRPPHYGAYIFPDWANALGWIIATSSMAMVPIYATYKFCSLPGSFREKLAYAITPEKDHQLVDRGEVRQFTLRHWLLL
For `Fc1cccc(C(Oc2ccccc2F)C2CCNCC2)c1` (single isomer, unassigned; (-)), the IC50 was > 500 nM.
`Fc1ccc(OC(c2ccccc2)C2CCNCC2)cc1` (stereo in doubt; (+)-15p) gave a Ki of 821 nM.
In the case of `c1ccc(C(Oc2cccc3ccccc23)C2CCNCC2)cc1` (single isomer, unassigned; (+)), the IC50 is reported as > 1000 nM.
For `O=[N+]([O-])c1ccc(OC(c2ccccc2)C2CCNCC2)cc1` (single isomer, unassigned; (-)), the IC50 was > 1000 nM.
`Brc1ccc(OC(c2ccccc2)C2CCNCC2)cc1` (single isomer, unassigned; (+)) was tested, and the IC50 was > 1000 nM.
Molecule `OC1(c2ccc(Cl)cc2)c2ccccc2C2=NCCN21` (configuration not stated) [MAZINDOL] has a Ki of 44.3 nM.
In the case of `c1ccc(C(Oc2cccc3ccccc23)C2CCNCC2)cc1` (stereo in doubt; (-)-15au), the IC50 is reported as > 1000 nM.
Molecule `Fc1ccccc1OC(c1ccccc1)C1CCNCC1` (single isomer, unassigned; (+)) has a Ki of 520 nM.
`Fc1cc(F)cc(OC(c2ccccc2)C2CCNCC2)c1` (stereo in doubt; (+)-15aj) was tested, and the IC50 was > 500 nM.
For `Brc1ccc(OC(c2ccccc2)C2CCNCC2)cc1` (single isomer, unassigned; (-)), the IC50 was > 1000 nM.
`N#Cc1cccc(OC(c2ccccc2)C2CCNCC2)c1` (single isomer, unassigned; (+)) was tested, and the IC50 was > 1000 nM.
In the case of `N#Cc1cccc(OC(c2ccccc2)C2CCNCC2)c1` (single isomer, unassigned; (-)), the Ki is reported as 110 nM.
For `Fc1cccc(OC(c2cccc(F)c2)C2CCNCC2)c1` (single isomer, unassigned; (+)), the IC50 was > 500 nM.

Each molecule was assayed against T1, Sodium-dependent serotonin transporter (assay: Binding affinity against serotonin transporter (SERT) by displacement of [3H]paroxetine in male wistar rats).
`FC(F)(F)c1ccc(OC(CCN2CCN(c3nsc4ccccc34)CC2)c2ccccc2)cc1` (configuration not stated) was tested, and the IC50 was > 1000 nM.
For `COc1ccc(OC(CCN2CCN(c3nsc4ccccc34)CC2)c2ccccc2)cc1` (configuration not stated), the IC50 was > 1000 nM.
For `O=C(CCC(Oc1ccc([N+](=O)[O-])cc1)c1ccccc1)C1CCN(c2ccc(F)cc2)CC1` (configuration not stated), the IC50 was > 1000 nM.
In the case of `FC(F)(F)c1ccccc1OC(CCN1CCN(c2nsc3ccccc23)CC1)c1ccccc1` (configuration not stated), the IC50 is reported as > 1000 nM.
For `c1ccc(-c2ccccc2OC(c2ccccc2)C2CCNCC2)cc1` (configuration not stated), the IC50 was > 1000 nM.
`FC(F)(F)c1cccc(OC(CCN2CCN(c3nsc4ccccc34)CC2)c2ccccc2)c1` (configuration not stated) was tested, and the IC50 was > 1000 nM.

What follows are molecules tested against T3, 5-hydroxytryptamine receptor 1A (Rattus norvegicus, UniProt P19327) (assay: Binding affinity against 5-hydroxytryptamine 1A receptor (5-HT1A) by displacement of [3H]8-OH-DPAT from rat hippocampus membranes).
T3 sequence (P19327 whole entry): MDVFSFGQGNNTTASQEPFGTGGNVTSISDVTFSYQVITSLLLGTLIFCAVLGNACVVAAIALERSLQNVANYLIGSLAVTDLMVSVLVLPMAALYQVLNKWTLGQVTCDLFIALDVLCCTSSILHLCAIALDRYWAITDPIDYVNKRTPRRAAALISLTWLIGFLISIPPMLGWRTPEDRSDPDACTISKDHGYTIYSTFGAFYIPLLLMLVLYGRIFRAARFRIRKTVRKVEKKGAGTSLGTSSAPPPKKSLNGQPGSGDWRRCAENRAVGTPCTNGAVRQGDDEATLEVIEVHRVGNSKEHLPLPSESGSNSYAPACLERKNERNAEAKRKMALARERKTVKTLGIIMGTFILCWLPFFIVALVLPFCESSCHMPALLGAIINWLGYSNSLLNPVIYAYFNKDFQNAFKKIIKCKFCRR
Type: cell membranes, Membrane
`Fc1cccc(C(Oc2ccccc2F)C2CCNCC2)c1` (single isomer, unassigned; (-)) was tested, and the IC50 was > 1000 nM.
In the case of `Fc1ccc(OC(c2ccccc2)C2CCNCC2)cc1` (stereo in doubt; (+)-15p), the IC50 is reported as > 1000 nM.
With `c1ccc(C(Oc2cccc3ccccc23)C2CCNCC2)cc1` (single isomer, unassigned; (+)) the IC50 was > 1000 nM.
`O=C(CCC(Oc1ccc([N+](=O)[O-])cc1)c1ccccc1)C1CCN(c2ccc(F)cc2)CC1` (configuration not stated) was tested, and the IC50 was > 1000 nM.
With `Fc1ccc(OC(CC2CCNCC2)c2ccccc2)cc1` (configuration not stated) the IC50 was > 1000 nM.
For `c1ccc(-c2ccccc2OC(c2ccccc2)C2CCNCC2)cc1` (configuration not stated), the IC50 was > 1000 nM.
For `FC(F)(F)c1cccc(OC(CCN2CCN(c3nsc4ccccc34)CC2)c2ccccc2)c1` (configuration not stated), the IC50 was > 1000 nM.
With `O=[N+]([O-])c1ccc(OC(c2ccccc2)C2CCNCC2)cc1` (single isomer, unassigned; (-)) the IC50 was > 1000 nM.
In the case of `Brc1ccc(OC(c2ccccc2)C2CCNCC2)cc1` (single isomer, unassigned; (+)), the IC50 is reported as > 1000 nM.
For `Fc1ccc(OC(CC2CCNCC2)c2ccc(F)cc2)cc1` (configuration not stated), the IC50 was > 1000 nM.
`OC1(c2ccc(Cl)cc2)c2ccccc2C2=NCCN21` (configuration not stated) [MAZINDOL] was tested, and the IC50 was > 1000 nM.
`Fc1ccc(OC(c2cccc(F)c2)C2CCNCC2)cc1` (configuration not stated) was tested, and the IC50 was > 1000 nM.
In the case of `c1ccc(C(Oc2cccc3ccccc23)C2CCNCC2)cc1` (stereo in doubt; (-)-15au), the IC50 is reported as > 1000 nM.
In the case of `Fc1ccccc1OC(c1ccccc1)C1CCNCC1` (single isomer, unassigned; (+)), the IC50 is reported as > 1000 nM.
For `Fc1cc(F)cc(OC(c2ccccc2)C2CCNCC2)c1` (stereo in doubt; (+)-15aj), the IC50 was > 1000 nM.
With `Brc1ccc(OC(c2ccccc2)C2CCNCC2)cc1` (single isomer, unassigned; (-)) the IC50 was > 1000 nM.
In the case of `N#Cc1cccc(OC(c2ccccc2)C2CCNCC2)c1` (single isomer, unassigned; (+)), the IC50 is reported as > 1000 nM.
In the case of `N#Cc1cccc(OC(c2ccccc2)C2CCNCC2)c1` (single isomer, unassigned; (-)), the IC50 is reported as > 1000 nM.
With `Fc1cccc(OC(c2cccc(F)c2)C2CCNCC2)c1` (single isomer, unassigned; (+)) the IC50 was > 1000 nM.

These molecules were tested against Norepinephrine transporter (Rattus norvegicus, UniProt Q9WTR4) (assay: Binding affinity against norepinephrine transporter (NET) by displacement of [3H]nisoxetine in male wistar rats).
Norepinephrine transporter, sequence (Q9WTR4 whole entry): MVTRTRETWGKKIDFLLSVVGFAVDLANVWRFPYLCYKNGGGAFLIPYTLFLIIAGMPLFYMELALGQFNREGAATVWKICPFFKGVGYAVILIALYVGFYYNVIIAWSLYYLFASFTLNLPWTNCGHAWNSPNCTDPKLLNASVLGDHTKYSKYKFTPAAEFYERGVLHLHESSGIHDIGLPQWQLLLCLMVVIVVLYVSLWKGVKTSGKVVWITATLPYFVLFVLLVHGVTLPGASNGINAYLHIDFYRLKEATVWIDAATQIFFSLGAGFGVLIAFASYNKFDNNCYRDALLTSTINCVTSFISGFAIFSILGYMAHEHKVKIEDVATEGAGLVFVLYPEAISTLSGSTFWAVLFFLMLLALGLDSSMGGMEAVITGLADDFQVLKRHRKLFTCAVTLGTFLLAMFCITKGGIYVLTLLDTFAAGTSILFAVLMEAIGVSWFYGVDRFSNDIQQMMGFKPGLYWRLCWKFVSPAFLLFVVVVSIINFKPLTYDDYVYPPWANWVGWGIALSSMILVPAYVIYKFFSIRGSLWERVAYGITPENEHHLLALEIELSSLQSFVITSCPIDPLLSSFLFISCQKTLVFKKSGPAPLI
In the case of `Fc1cccc(C(Oc2ccccc2F)C2CCNCC2)c1` (single isomer, unassigned; (-)), the Ki is reported as 19.1 nM.
Molecule `c1ccc(C(Oc2cccc3ccccc23)C2CCNCC2)cc1` (single isomer, unassigned; (+)) has a Ki of 417 nM.
For `O=[N+]([O-])c1ccc(OC(c2ccccc2)C2CCNCC2)cc1` (single isomer, unassigned; (-)), the IC50 was > 500 nM.
For `Brc1ccc(OC(c2ccccc2)C2CCNCC2)cc1` (single isomer, unassigned; (+)), the IC50 was > 1000 nM.
For `OC1(c2ccc(Cl)cc2)c2ccccc2C2=NCCN21` (configuration not stated) [MAZINDOL], the Ki was 0.8 nM.
In the case of `c1ccc(C(Oc2cccc3ccccc23)C2CCNCC2)cc1` (stereo in doubt; (-)-15au), the IC50 is reported as > 1000 nM.
With `Fc1ccccc1OC(c1ccccc1)C1CCNCC1` (single isomer, unassigned; (+)) the Ki was 41.4 nM.
In the case of `Brc1ccc(OC(c2ccccc2)C2CCNCC2)cc1` (single isomer, unassigned; (-)), the IC50 is reported as > 500 nM.

Each molecule was assayed against T3, 5-hydroxytryptamine receptor 1A (assay: Displacement of [3H]8-OH-DPAT from 5-hydroxytryptamine 1A receptor of rat hippocampus mambranes).
Type: tissue-based
Work on `FC(F)(F)c1ccc(OC(CCN2CCN(c3nsc4ccccc34)CC2)c2ccccc2)cc1` (configuration not stated) yielded a Ki of 33.7 nM.
For `COc1ccc(OC(CCN2CCN(c3nsc4ccccc34)CC2)c2ccccc2)cc1` (configuration not stated), the Ki was 69.7 nM.
`FC(F)(F)c1ccccc1OC(CCN1CCN(c2nsc3ccccc23)CC1)c1ccccc1` (configuration not stated) was tested, and the Ki was 446 nM.

Each molecule was assayed against T2, 5-hydroxytryptamine receptor 2A (assay: Binding affinity against 5-hydroxytryptamine 2A receptor by displacement of [3H]-ketanserin from rat prefrontal cerebral cortex mambranes).
Type: tissue-based, Frontal cortex
`Fc1cccc(C(Oc2ccccc2F)C2CCNCC2)c1` (single isomer, unassigned; (-)) was tested, and the IC50 was > 1000 nM.
`Fc1ccc(OC(c2ccccc2)C2CCNCC2)cc1` (stereo in doubt; (+)-15p) was tested, and the IC50 was > 1000 nM.
For `c1ccc(C(Oc2cccc3ccccc23)C2CCNCC2)cc1` (single isomer, unassigned; (+)), the IC50 was > 1000 nM.
With `O=[N+]([O-])c1ccc(OC(c2ccccc2)C2CCNCC2)cc1` (single isomer, unassigned; (-)) the IC50 was > 1000 nM.
With `Brc1ccc(OC(c2ccccc2)C2CCNCC2)cc1` (single isomer, unassigned; (+)) the IC50 was > 1000 nM.
In the case of `OC1(c2ccc(Cl)cc2)c2ccccc2C2=NCCN21` (configuration not stated) [MAZINDOL], the IC50 is reported as > 1000 nM.
In the case of `c1ccc(C(Oc2cccc3ccccc23)C2CCNCC2)cc1` (stereo in doubt; (-)-15au), the IC50 is reported as > 1000 nM.
In the case of `Fc1ccccc1OC(c1ccccc1)C1CCNCC1` (single isomer, unassigned; (+)), the IC50 is reported as > 1000 nM.
For `Fc1cc(F)cc(OC(c2ccccc2)C2CCNCC2)c1` (stereo in doubt; (+)-15aj), the IC50 was > 1000 nM.
In the case of `Brc1ccc(OC(c2ccccc2)C2CCNCC2)cc1` (single isomer, unassigned; (-)), the IC50 is reported as > 1000 nM.
`N#Cc1cccc(OC(c2ccccc2)C2CCNCC2)c1` (single isomer, unassigned; (+)) was tested, and the IC50 was > 1000 nM.
With `N#Cc1cccc(OC(c2ccccc2)C2CCNCC2)c1` (single isomer, unassigned; (-)) the IC50 was > 1000 nM.
`Fc1cccc(OC(c2cccc(F)c2)C2CCNCC2)c1` (single isomer, unassigned; (+)) was tested, and the IC50 was > 1000 nM.
